Results on two compounds are retold here after patent US4826817A, “Amino acid and hydroxyamino acid transporter compounds for therapeutic applications, process and use” (priority 1986, dated 1989).

The nature of data set [1]: Plasma and brain levels of L-tyrosine after intraperitoneal injection to rats. The conditions noted are these: rat; for concentration at 0.5 h / concentration at 2 h: ip, 1620 umol/kg.
Protocol: Male CD-COBS rats (Charles River, Italy) weighing 200 g were used. The animals housed under standard conditions of light-dark cycle, temperature and humidity with free access to water and food. […] Controls received saline. Rates were killed by decapitation 30 and 120 min. after treatment. Plasma and brain were rapidly removed and kept at -20° C. until assay.
The nature of data set [2]: Plasma and brain levels of L-tyrosine after intravenous injection to rats. Type of data set: in vivo, rat (male CD-COBS). The conditions noted are these: rat, i.v. 1.62 mmol/kg, Table I. From the text: Controls received saline.

With `N[C@@H](Cc1ccc(O)cc1)C(=O)O` [L-tyrosine], in data set [1] (brain), the concentration at 0.5 h was 20200 ± 1750 ng/g and the concentration at 2 h came to 21800 ± 1520 ng/g. Moreover, the “brain L-tyrosine concentrations (in words)” value in data set [1] (i.p. 1.62 mmol/kg, both intervals (30 and 120 min), Table II, L-tyrosine p<0.05, O-L-lysyl-L-tyrosine p<0.01) was “significantly increased”. Moreover, in data set [1] (plasma), the concentration at 0.5 h turned out to be 16900 ± 2060 ng/g and the concentration at 2 h was 12700 ± 2230 ng/g.

With `NCCCC[C@H](N)C(=O)Oc1ccc(C[C@H](N)C(=O)O)cc1` [O-L-lysyl-L-tyrosine], the “Plasma L-tyrosine (in words)” value in data set [2] is given as “significantly raised by only 30 min. after the i.v. dose”. In addition, in data set [2] (both intervals (30 and 120 min)), the “brain L-tyrosine concentrations (in words)” value is “significantly increased”.
